In patent US20130116219A1, “ANTIMICROBIAL CARBOLINE COMPOUNDS” (ALCON RESEARCH, LTD., priority 2011, published 2013):

Tested on: Ad5
Experiment: Ad5 genome replication assay (cell-based QPCR) in A549 cells
Details: Human adenovirus sp., A549, 72 h, read-out: Ad5 qPCR EC50 (μM)
Protocol: Compounds of the present invention were tested for potency against Ad5 in an Ad5 genome replication assay, a cell-based QPCR assay of Ad5 genome replication in A549 cells, a human lung carcinoma cell line. Serotype of human Ad5, used in this replication assay can also replicate in a NZW rabbit model of adenoviral ocular keratitis.
EC50 values (μM) for inhibition of adenoviral replication were determined by QPCR. Briefly, 10,000 cultured A549 cells were inoculated with 25,000 pfu/well for 3 hrs in 2% FBS F12-K A549 culture media. Following inoculation, A549 cells were treated with log unit dilutions of compound of Formula I (˜10 μM thru˜10 pM) in 10% FBS F12-K culture media with 0.3% DMSO for an additional 3 days. Cell viability was assessed with Alamar Blue (10 μl/well for 2 hrs; fluorescence Ex353; Em595 nm). Plates were washed 3 times with 125 μl PBS, cell lysates were prepared for QPCR analysis using Cells to SNP kit (Life Technologies). Ad5 genome levels per cell were determined with RNaseP and Ad5 hexon Taqman Assays (Life Technologies). EC50, the concentration that inhibited Ad5 genome replication formation by 50%, was estimated from plots of Ad5 genomes/cell vs. compound concentration.

| SMILES | EC50 [µM] |
| --- | --- |
| CC(C)CC1c2[nH]c3ccc(Cl)cc3c2CCN1C(=O)CCc1ccccc1 (stereo not shown) [Compound 1] | 0.1 to 1 |
| CC(C)CC1c2[nH]c3ccc(Cl)cc3c2CCN1C(=O)CCN1CCOCC1 (stereo not shown) [Compound 2] | > 1 |
| CC(C)CC1c2[nH]c3ccc(Cl)cc3c2CCN1C(=O)CCN1CCCCC1 (stereo not shown) [Compound 3] | > 1 |
| Cc1ccc(C2c3[nH]c4ccc(Cl)cc4c3CCN2C(=O)CCN2CCC(F)(F)CC2)cc1 (stereo not shown) [Compound 4] | 0.1 to 1 |
| O=C(CCN1CCC(F)(F)CC1)N1CCc2c([nH]c3ccc(Cl)cc23)C1c1ccc(F)cc1 (stereo not shown) [Compound 5] | > 1 |
| CC(C)CC1c2[nH]c3ccc(Cl)cc3c2CCN1C(=O)CN1CCC(F)(F)CC1 (stereo not shown) [Compound 7] | 0.1 to 1 |
| CC(C)CC1c2[nH]c3ccc(Cl)cc3c2CCN1C(=O)CN1CCC(C(F)(F)F)CC1 (stereo not shown) [Compound 8] | 0.1 to 1 |
| O=C(CCN1CCC(F)(F)CC1)N1CCc2c([nH]c3ccc(Cl)cc23)C1CC1CCCC1 (stereo not shown) [Compound 9] | 0.1 to 1 |
| CC(C)(C)CC1c2[nH]c3ccc(Cl)cc3c2CCN1C(=O)CCN1CCC(F)(F)CC1 (stereo not shown) [Compound 10] | 0.1 to 1 |
| CC(C)CC1c2[nH]c3ccc(Cl)cc3c2CCN1C(=O)CCN1CCC(F)(F)C1 (stereo not shown) [Compound 11] | 0.1 to 1 |
| CC(C)CC1c2[nH]c3ccc(Cl)cc3c2CCN1C(=O)CCCN1CCC(F)(F)CC1 (stereo not shown) [Compound 12] | > 1 |
| CC(C)CC1c2[nH]c3ccc(Cl)cc3c2CCN1C(=O)CCN1CCCC(F)(F)C1 (stereo not shown) [Compound 13] | 0.1 to 1 |
| CC(C)CC1c2[nH]c3ccc(Cl)cc3c2CCN1C(=O)OCCN1CCC(F)(F)CC1 (stereo not shown) [Compound 14] | 0.1 to 1 |
| CC(C)CC1c2[nH]c3ccc(Cl)cc3c2CCN1C(=O)CCN1CCC(C)CC1 (stereo not shown) [Compound 15] | > 1 |
| CC(C)CC1c2[nH]c3ccc(Cl)cc3c2CCN1C(=O)CCN1CCC(CF)CC1 (stereo not shown) [Compound 16] | 0.1 to 1 |
| CC(C)CC1c2[nH]c3ccc(Cl)cc3c2CCN1C(=O)OCCN1CCC(C(F)(F)F)C1 (stereo not shown) [Compound 17] | 0.1 to 1 |
| CC(C)CC1c2[nH]c3ccc(Cl)cc3c2CCN1C(=O)OCCN1CCC(F)(F)C1 (stereo not shown) [Compound 18] | 0.1 to 1 |
| CC(C)CC1c2[nH]c3ccc(Cl)cc3c2CCN1C(=O)CCN1CCSCC1 (stereo not shown) [Compound 19] | 0.1 to 1 |
| CC(C)C[C@H]1c2[nH]c3ccc(Cl)cc3c2CCN1C(=O)CCN1CCC(C(F)(F)F)CC1 [Compound 20, (S)-1-(6-chloro-1-isobutyl-3,4-dihydro-1H-pyrido[3,4-b]indol-2(9H)-yl)-3-(4-(trifluoromethyl)piperidin-1-yl)propan-1-one] | 0.1 to 1 |
| CC(C)CC1c2[nH]c3ccc(Cl)cc3c2CCN1C(=O)OCCN1CC(F)C1 (stereo not shown) [Compound 21] | > 1 |
| CC(C)CC1c2[nH]c3ccc(Cl)cc3c2CCN1C(=O)OCCN1CCC(C(F)F)CC1 (stereo not shown) [Compound 22] | > 1 |
| CC(C)CC1c2[nH]c3ccc(Cl)cc3c2CCN1C(=O)OCCN1CCC(F)CC1 (stereo not shown) [Compound 23] | > 1 |
| CC(C)CC1c2[nH]c3ccc(Cl)cc3c2CCN1C(=O)OCCN1CCC(CF)CC1 (stereo not shown) [Compound 24] | > 1 |
| CC(C)CC1c2[nH]c3ccc(Cl)cc3c2CCN1C(=O)C1(C#N)CC1 (stereo not shown) [Compound 25] | > 1 |
| CC(C)CC1c2[nH]c3ccc(Cl)cc3c2CCN1C(=O)OCCN1CC(F)(F)C1 (stereo not shown) [Compound 26] | 0.1 to 1 |
| O=C(CCN1CCC(F)CC1)N1CCc2c([nH]c3ccc(Cl)cc23)C1CC1CCCC1 (stereo not shown) [Compound 27] | 0.1 to 1 |
| CC(C)C[C@H]1c2[nH]c3ccc(Cl)cc3c2CCN1C(=O)CCN1CCC(F)CC1 [Compound 28, (S)-1-(6-chloro-1-isobutyl-3,4-dihydro-1H-pyrido[3,4-b]indol-2(9H)-yl)-3-(4-fluoropiperidin-1-yl)propan-1-one] | 0.1 to 1 |
| CC(C)C[C@H]1c2[nH]c3ccc(Cl)cc3c2CCN1C(=O)CCN1CCC(C(F)F)CC1 [Compound 29, (S)-1-(6-chloro-1-isobutyl-3,4-dihydro-1H-pyrido[3,4-b]indol-2(9H)-yl)-3-(4-(difluoromethyl)piperidin-1-yl)propan-1-one] | 0.1 to 1 |
